# Test results from patent US20100099561A1, “HETEROBICYCLIC ALKYLTHIO-BRIDGED ISOXAZOLINES” (E.I. DU PONT DE NEMOURS AND COMPANY, priority 2008, published 2010).
# How the values were obtained:
# Format in all cases: in vivo
# [1] = test system: pigweed (Amaranthus retroflexus); assay: Test A preemergence, pigweed; conditions: 0 to 100 scale (0 no effect, 100 complete control)
# Outline: (§1)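 Ratings of 0–100 (0 no effect, 100 complete control) came from visual comparison with untreated controls after roughly ten days in a greenhouse. Plants in loam soil–sand blend were treated with compound in non-phytotoxic solvent plus surfactant, pre- or postemergence (one- to two-leaf stage).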
# [2] = test system: velvetleaf (Abutilon theophrasti); assay: Test A preemergence, velvetleaf; conditions: 0 to 100 scale (0 no effect, 100 complete control)
# Outline: as §1
# [3] = test system: barnyardgrass (Echinochloa crus-galli); assay: Test A postemergence, barnyardgrass; conditions: 0 to 100 scale (0 no effect, 100 complete control)
# Outline: as §1
# [4] = test system: wheat (Triticum aestivum); assay: Test A postemergence, wheat; conditions: 0 to 100 scale (0 no effect, 100 complete control)
# Outline: as §1
# corn (Zea mays) [5] = assay: Test A postemergence, corn; conditions: 0 to 100 scale (0 no effect, 100 complete control)
# Outline: as §1
# [6] = test system: blackgrass (Alopecurus myosuroides); assay: Test B preemergence, blackgrass; conditions: scale 0 to 100
# Text: (§2) Seeds of plant species selected from blackgrass (Alopecurus myosuroides), downy bromegrass (Bromus tectorum), green foxtail (Setaria viridis), Italian ryegrass (Lolium multiflorum), wheat (Triticum aestivum), wild oat (Avena fatua), catchweed bedstraw (Galium aparine), bermudagrass (Cynodon dactylon), Surinam grass (Brachiaria decumbens), cocklebur (Xanthium strumarium), corn (Zea mays), large crabgrass (Digitaria sanguinalis), woolly cupgrass (Eriochloa villosa), giant foxtail (Setaria faberii), goosegrass (Eleusine indica), johnsongrass (Sorghum halepense), kochia (Kochia scoparia), lambsquarters (Chenopodium album), morningglory (Ipomoea coccinea), nightshade (eastern black nightshade, Solanum ptycanthum), yellow nutsedge (Cyperus esculentus), pigweed (Amaranthus retroflexus), ragweed (common ragweed, Ambrosia elatior), soybean (Glycine max), sunflower (common oilseed sunflower, Helianthus annuus), Russian thistle (Salsola kali), and velvetleaf (Abutilon theophrasti) were planted into a blend of loam soil and sand and treated preemergence with test compounds formulated in a non-phytotoxic solvent mixture which included a surfactant. Treated plants and controls were maintained in a greenhouse for 13 to 15 days, after which time all species were compared to controls and visually evaluated. Plant response ratings, summarized in Table B, are based on a scale of 0 to 100 where 0 is no effect and 100 is complete control. A dash (-) response means no test result.
# [7] = test system: green foxtail (Setaria viridis); assay: Test B preemergence, green foxtail; conditions: scale 0 to 100
# Text: as §2
# wild oat (Avena fatua) = assay: Test B preemergence, wild oat; conditions: scale 0 to 100
# Text: as §2
# [8] = test system: catchweed bedstraw (Galium aparine); assay: Test B preemergence, catchweed bedstraw; conditions: scale 0 to 100
# Text: as §2
# [9] = test system: bermudagrass (Cynodon dactylon); assay: Test B preemergence, bermudagrass; conditions: scale 0 to 100
# Text: as §2
# corn (Zea mays) [10] = assay: Test B preemergence, corn; conditions: scale 0 to 100
# Text: as §2
# [11] = test system: large crabgrass (Digitaria sanguinalis); assay: Test B preemergence, large crabgrass; conditions: scale 0 to 100
# Text: as §2
# [12] = test system: woolly cupgrass (Eriochloa villosa); assay: Test B preemergence, woolly cupgrass; conditions: scale 0 to 100
# Text: as §2
# [13] = test system: giant foxtail (Setaria faberii); assay: Test B preemergence, giant foxtail; conditions: scale 0 to 100
# Text: as §2
# [14] = test system: johnsongrass (Sorghum halepense); assay: Test B preemergence, johnsongrass; conditions: scale 0 to 100
# Text: as §2
# [15] = test system: morningglory (Ipomoea coccinea); assay: Test B preemergence, morningglory; conditions: scale 0 to 100
# Text: as §2
# [16] = test system: nightshade (eastern black nightshade, Solanum ptycanthum); assay: Test B preemergence, nightshade; conditions: scale 0 to 100
# Text: as §2
# [17] = test system: yellow nutsedge (Cyperus esculentus); assay: Test B preemergence, yellow nutsedge; conditions: scale 0 to 100
# Text: as §2
# [18] = test system: umbrella sedge (Cyperus difformis); assay: Test B flooded paddy test, umbrella sedge; conditions: Flood, scale 0 to 100
# Outline: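 Paddy-water application to 2-leaf plants in pots held under 3 cm of flooding; response is a 0–100 visual control rating against controls after 13 to 15 days, and a dash marks a missing result.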
compound,measurement,setting,value
"CC1(C)CC(S(=O)(=O)Cc2c(C(F)(F)F)nc3n(c2=O)CCC3)=NO1 [Compound 11, 3-[[(4,5-dihydro-5,5-dimethyl-3-isoxazolyl)sulfonyl]methyl]-7,8-dihydro-2-(trifluoromethyl)pyrrolo[1,2-α]pyrimidin-4(6H)-one]","Plant response rating, Pigweed",[1]; 125 g ai/ha,30
same,"Plant response rating, Pigweed",[1]; 500 g ai/ha,100
same,"Plant response rating, Velvetleaf",[2]; 125 g ai/ha,10
same,"Plant response rating, Velvetleaf",[2]; 500 g ai/ha,60
same,"Plant response rating, Barnyardgrass",[3]; 125 g ai/ha,80
same,"Plant response rating, Barnyardgrass",[3]; 500 g ai/ha,90
same,"Plant response rating, Wheat",[4]; 125 g ai/ha,20
same,"Plant response rating, Wheat",[4]; 500 g ai/ha,60
same,"Plant response rating, Corn",corn (Zea mays) [5]; 125 g ai/ha,20
same,"Plant response rating, Corn",corn (Zea mays) [5]; 500 g ai/ha,50
same,"Plant response rating, Blackgrass",[6]; 16 g ai/ha,0
same,"Plant response rating, Blackgrass",[6]; 31 g ai/ha,70
same,"Plant response rating, Blackgrass",[6]; 62 g ai/ha,70
same,"Plant response rating, Blackgrass",[6]; 125 g ai/ha,100
same,"Plant response rating, Foxtail, Green",[7]; 16 g ai/ha,20
same,"Plant response rating, Foxtail, Green",[7]; 31 g ai/ha,70
same,"Plant response rating, Foxtail, Green",[7]; 62 g ai/ha,100
same,"Plant response rating, Foxtail, Green",[7]; 125 g ai/ha,100
same,"Plant response rating, Oat, Wild",wild oat (Avena fatua); 16 g ai/ha,0
same,"Plant response rating, Oat, Wild",wild oat (Avena fatua); 31 g ai/ha,10
same,"Plant response rating, Oat, Wild",wild oat (Avena fatua); 62 g ai/ha,20
same,"Plant response rating, Oat, Wild",wild oat (Avena fatua); 125 g ai/ha,65
same,"Plant response rating, Galium",[8]; 16 g ai/ha,0
same,"Plant response rating, Galium",[8]; 31 g ai/ha,0
same,"Plant response rating, Galium",[8]; 62 g ai/ha,95
same,"Plant response rating, Galium",[8]; 125 g ai/ha,98
same,"Plant response rating, Bermudagrass",[9]; 16 g ai/ha,65
same,"Plant response rating, Bermudagrass",[9]; 31 g ai/ha,100
same,"Plant response rating, Bermudagrass",[9]; 62 g ai/ha,100
same,"Plant response rating, Bermudagrass",[9]; 125 g ai/ha,100
same,"Plant response rating, Corn",corn (Zea mays) [10]; 16 g ai/ha,0
same,"Plant response rating, Corn",corn (Zea mays) [10]; 31 g ai/ha,0
same,"Plant response rating, Corn",corn (Zea mays) [10]; 62 g ai/ha,0
same,"Plant response rating, Corn",corn (Zea mays) [10]; 125 g ai/ha,0
same,"Plant response rating, Crabgrass, Large",[11]; 16 g ai/ha,65
same,"Plant response rating, Crabgrass, Large",[11]; 31 g ai/ha,85
same,"Plant response rating, Crabgrass, Large",[11]; 62 g ai/ha,100
same,"Plant response rating, Crabgrass, Large",[11]; 125 g ai/ha,100
same,"Plant response rating, Cupgrass, Woolly",[12]; 16 g ai/ha,85
same,"Plant response rating, Cupgrass, Woolly",[12]; 31 g ai/ha,100
same,"Plant response rating, Cupgrass, Woolly",[12]; 62 g ai/ha,100
same,"Plant response rating, Cupgrass, Woolly",[12]; 125 g ai/ha,100
same,"Plant response rating, Foxtail, Giant",[13]; 16 g ai/ha,0
same,"Plant response rating, Foxtail, Giant",[13]; 31 g ai/ha,40
same,"Plant response rating, Foxtail, Giant",[13]; 62 g ai/ha,95
same,"Plant response rating, Foxtail, Giant",[13]; 125 g ai/ha,100
same,"Plant response rating, Johnsongrass",[14]; 16 g ai/ha,0
same,"Plant response rating, Johnsongrass",[14]; 31 g ai/ha,60
same,"Plant response rating, Johnsongrass",[14]; 62 g ai/ha,65
same,"Plant response rating, Johnsongrass",[14]; 125 g ai/ha,90
same,"Plant response rating, Morningglory",[15]; 16 g ai/ha,0
same,"Plant response rating, Morningglory",[15]; 31 g ai/ha,65
same,"Plant response rating, Morningglory",[15]; 62 g ai/ha,80
same,"Plant response rating, Morningglory",[15]; 125 g ai/ha,95
same,"Plant response rating, Nightshade",[16]; 16 g ai/ha,0
same,"Plant response rating, Nightshade",[16]; 31 g ai/ha,60
same,"Plant response rating, Nightshade",[16]; 62 g ai/ha,95
same,"Plant response rating, Nightshade",[16]; 125 g ai/ha,98
same,"Plant response rating, Nutsedge, Yellow",[17]; 16 g ai/ha,0
same,"Plant response rating, Nutsedge, Yellow",[17]; 31 g ai/ha,0
same,"Plant response rating, Nutsedge, Yellow",[17]; 62 g ai/ha,0
same,"Plant response rating, Nutsedge, Yellow",[17]; 125 g ai/ha,0
same,"Plant response rating, Sedge, Umbrella",[18]; 31 g ai/ha,0
same,"Plant response rating, Sedge, Umbrella",[18]; 62 g ai/ha,0
same,"Plant response rating, Sedge, Umbrella",[18]; 125 g ai/ha,0
same,"Plant response rating, Sedge, Umbrella",[18]; 250 g ai/ha,20
CC1(C)CC(S(=O)(=O)Cc2c(C(F)(F)F)nc3ccsn3c2=O)=NO1 [Compound 16],"Plant response rating, Pigweed",[1]; 500 g ai/ha,100
same,"Plant response rating, Velvetleaf",[2]; 125 g ai/ha,50
same,"Plant response rating, Velvetleaf",[2]; 500 g ai/ha,60
same,"Plant response rating, Barnyardgrass",[3]; 125 g ai/ha,80
same,"Plant response rating, Barnyardgrass",[3]; 500 g ai/ha,90
same,"Plant response rating, Wheat",[4]; 125 g ai/ha,0
same,"Plant response rating, Wheat",[4]; 500 g ai/ha,50
same,"Plant response rating, Corn",corn (Zea mays) [5]; 125 g ai/ha,0
same,"Plant response rating, Corn",corn (Zea mays) [5]; 500 g ai/ha,0
same,"Plant response rating, Blackgrass",[6]; 16 g ai/ha,10
same,"Plant response rating, Blackgrass",[6]; 31 g ai/ha,85
same,"Plant response rating, Blackgrass",[6]; 62 g ai/ha,90
same,"Plant response rating, Blackgrass",[6]; 125 g ai/ha,100
same,"Plant response rating, Foxtail, Green",[7]; 16 g ai/ha,0
same,"Plant response rating, Foxtail, Green",[7]; 31 g ai/ha,20
same,"Plant response rating, Foxtail, Green",[7]; 62 g ai/ha,85
same,"Plant response rating, Foxtail, Green",[7]; 125 g ai/ha,98
same,"Plant response rating, Oat, Wild",wild oat (Avena fatua); 16 g ai/ha,0
same,"Plant response rating, Oat, Wild",wild oat (Avena fatua); 31 g ai/ha,20
same,"Plant response rating, Oat, Wild",wild oat (Avena fatua); 62 g ai/ha,30
same,"Plant response rating, Oat, Wild",wild oat (Avena fatua); 125 g ai/ha,60
same,"Plant response rating, Galium",[8]; 16 g ai/ha,0
same,"Plant response rating, Galium",[8]; 31 g ai/ha,0
same,"Plant response rating, Galium",[8]; 62 g ai/ha,0
same,"Plant response rating, Galium",[8]; 125 g ai/ha,70
same,"Plant response rating, Corn",corn (Zea mays) [10]; 16 g ai/ha,0
same,"Plant response rating, Corn",corn (Zea mays) [10]; 31 g ai/ha,0
same,"Plant response rating, Corn",corn (Zea mays) [10]; 62 g ai/ha,0
same,"Plant response rating, Corn",corn (Zea mays) [10]; 125 g ai/ha,0
same,"Plant response rating, Crabgrass, Large",[11]; 16 g ai/ha,70
same,"Plant response rating, Crabgrass, Large",[11]; 31 g ai/ha,95
same,"Plant response rating, Crabgrass, Large",[11]; 62 g ai/ha,100
same,"Plant response rating, Crabgrass, Large",[11]; 125 g ai/ha,100
same,"Plant response rating, Cupgrass, Woolly",[12]; 16 g ai/ha,0
same,"Plant response rating, Cupgrass, Woolly",[12]; 31 g ai/ha,25
same,"Plant response rating, Cupgrass, Woolly",[12]; 62 g ai/ha,95
same,"Plant response rating, Cupgrass, Woolly",[12]; 125 g ai/ha,98
same,"Plant response rating, Foxtail, Giant",[13]; 16 g ai/ha,0
same,"Plant response rating, Foxtail, Giant",[13]; 31 g ai/ha,80
same,"Plant response rating, Foxtail, Giant",[13]; 62 g ai/ha,90
same,"Plant response rating, Foxtail, Giant",[13]; 125 g ai/ha,98
same,"Plant response rating, Johnsongrass",[14]; 16 g ai/ha,0
same,"Plant response rating, Johnsongrass",[14]; 31 g ai/ha,45
same,"Plant response rating, Johnsongrass",[14]; 62 g ai/ha,85
same,"Plant response rating, Johnsongrass",[14]; 125 g ai/ha,95
same,"Plant response rating, Morningglory",[15]; 16 g ai/ha,0
same,"Plant response rating, Morningglory",[15]; 31 g ai/ha,0
same,"Plant response rating, Morningglory",[15]; 62 g ai/ha,0
same,"Plant response rating, Morningglory",[15]; 125 g ai/ha,0
same,"Plant response rating, Nightshade",[16]; 16 g ai/ha,0
same,"Plant response rating, Nightshade",[16]; 31 g ai/ha,0
same,"Plant response rating, Nightshade",[16]; 62 g ai/ha,85
same,"Plant response rating, Nightshade",[16]; 125 g ai/ha,95
same,"Plant response rating, Nutsedge, Yellow",[17]; 16 g ai/ha,0
same,"Plant response rating, Nutsedge, Yellow",[17]; 31 g ai/ha,0
same,"Plant response rating, Nutsedge, Yellow",[17]; 62 g ai/ha,0
same,"Plant response rating, Nutsedge, Yellow",[17]; 125 g ai/ha,0
same,"Plant response rating, Sedge, Umbrella",[18]; 62 g ai/ha,0
same,"Plant response rating, Sedge, Umbrella",[18]; 250 g ai/ha,40
